PubChem BioAssay (NCI)
Values joined by “and” are separate entries in the source; they are usually repeats but may differ in a detail not shown here. Equal entries are not always repeated.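 Where inhibition never reached the appropriate level, the endpoint shown equals the highest concentration tested. Otherwise, values were interpolated linearly from a five-concentration, 48-hour dose response in 96-well plates. At the GI50, growth is halved. At the TGI there is no net growth.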 *1 amine or outer side, *2 acyl side, *3 side chain or, on linkers, in order; H or OH if unused. Where a SMILES comes first, the peptide text is derived from it. Bridges are numbered along the chain shown (N, C = ends). [ ]: non-standard residue; d: D form. ξ: configuration not given here. X4 = CCC(C)C(N[*:1])C(O)CC(=O)O[C@H](C(=O)C(C)C(=O)[*:2])C(C)C; NMeY = CN[C@@H](Cc1ccc(O)cc1)C(=O)O; X9 = O=C([C@@H]1CC(O)CN1[*:1])[*:2]; ξNMeL = CNC(CC(C)C)C(=O)O; ξT = CC(O)C(N)C(=O)O

Columns and labels:
Test in all cases: inhibition of tumour cell growth, NCI panel, 48 h
NCI-H226 lung = test system: NCI-H226 lung
SF-539 CNS = test system: SF-539 CNS
ACHN renal = test system: ACHN renal
HCT-116 colon = test system: HCT-116 colon
SN12C renal = test system: SN12C renal
SK-MEL-28 melanoma = test system: SK-MEL-28 melanoma
U251 CNS = test system: U251 CNS
HCT-15 colon = test system: HCT-15 colon
MCF7 breast = test system: MCF7 breast
NCI/ADR-RES ovarian = test system: NCI/ADR-RES ovarian

Row | Structure (SMILES) | TGI (NCI-H226 lung) | TGI (SF-539 CNS) | TGI (ACHN renal) | TGI (HCT-116 colon) | TGI (SN12C renal) | TGI (SK-MEL-28 melanoma) | TGI (U251 CNS) | TGI (HCT-15 colon) | GI50 (NCI-H226 lung) | GI50 (MCF7 breast) | TGI (MCF7 breast) | GI50 (SF-539 CNS) | GI50 (ACHN renal) | GI50 (HCT-116 colon) | GI50 (SN12C renal) | GI50 (SK-MEL-28 melanoma) | GI50 (U251 CNS) | GI50 (HCT-15 colon) | GI50 (NCI/ADR-RES ovarian) | TGI (NCI/ADR-RES ovarian)
1 | CC(C)=CC(=O)Cc1nc2ccccc2[nH]c1=O | > 100 µM | > 100 µM | > 100 µM | > 100 µM | > 100 µM | > 100 µM | > 100 µM | > 100 µM |  |  |  |  |  |  |  |  |  |  |  | 
2 | O=S(=O)(O)C(F)(F)C(F)(F)C(F)(F)C(F)(F)F |  | > 100 µM | > 100 µM | > 100 µM | > 100 µM |  | > 100 µM | > 100 µM |  |  |  |  |  |  |  |  |  |  |  | 
3 | CCN=C1NN=C(c2ccccc2)c2cc(Cl)ccc2N1 | 43.3 µM | 35.8 µM | > 100 µM |  | 88.5 µM | 33.7 µM | 42.6 µM | 48.6 µM |  |  |  |  |  |  |  |  |  |  |  | 
4 | CCNC(=O)C(O)C1(O)CCC2[C@@H]3CCC4=CC(=O)C=C[C@]4(C)C3[C@@H](O)C[C@@]21C (some centres undefined) | > 100 µM | > 100 µM | > 100 µM | > 100 µM | > 100 µM | > 100 µM | > 100 µM | > 100 µM |  |  |  |  |  |  |  |  |  |  |  | 
5 | CCOC(=O)c1sc(=S)c2c(C(=O)c3ccccc3)c(C(=O)c3ccccc3)sc2c1C(=O)OCC | > 100 µM | 17.8 µM | 9.32 µM | > 100 µM | 19.2 µM | > 100 µM | > 100 µM | > 100 µM | 6.68 µM | 3.74 µM | 26.6 µM | 3.82 µM | 3 µM | 4.16 µM | 3.16 µM | 25.3 µM | 3.49 µM | 4.1 µM |  | 
6 | CCCCCCn1c(-c2ccc(C(=O)O/N=C(\N)c3ccc(OC)cc3)cc2)nc(-c2ccccc2)c1-c1ccccc1 |  | 3.02 µM | 1.23 µM | 2.89 µM | 3.26 µM | > 100 µM | 4.21 µM | 2.87 µM |  | 1.61 µM | 3.72 µM | 1.5 µM | 0.354 µM | 1.4 µM | 1.62 µM | 2.96 µM | 1.62 µM | 1.25 µM | 1.18 µM | 3.41 µM
7 | COc1ccc(-c2ccc(/C=N/n3cn[nH]c3=S)o2)c([N+](=O)[O-])c1 |  | > 100 µM | > 100 µM | 94.4 µM | > 100 µM | > 100 µM |  | > 100 µM |  | 25.4 µM | 89.1 µM | 40.9 µM | 50.7 µM | 29.6 µM | 59.1 µM | 48.6 µM |  | 26 µM | 30.5 µM | 94 µM
8 | COc1ccccc1NC(=O)CC(=O)n1nc(C)c(N=Nc2ccccc2F)c1C | > 100 µM | > 64 µM | > 100 µM | > 31.6 µM | > 100 µM | > 100 µM | > 100 µM | > 100 µM |  |  |  |  |  |  |  |  |  |  |  | 
9 | c1ccc(-c2nc(Nc3ccc(-c4nc5ccccc5[nH]4)cc3)nc(N3CCOCC3)n2)cc1 | 4.58 µM | 2.94 µM | 2.74 µM | 1.62 µM | 3.83 µM | 3.09 µM | 1.76 µM |  | 2.4 µM | 0.877 µM | 2.85 µM | 1.42 µM | 1.25 µM | 0.394 µM | 1.74 µM | 1.56 µM | 0.535 µM |  | 1.93 µM | 5.53 µM
10 | CCCOc1ccc(/C=C\c2cc(OC)c(OC)c(OC)c2)cc1 | > 100 µM | > 100 µM | > 100 µM | > 100 µM | > 100 µM | > 100 µM | > 100 µM | > 100 µM |  |  |  |  |  |  |  |  |  |  |  | 
11 | N#CCCc1nc2ccc(Br)cc2c(=O)n1-c1ccc(O)c([N+](=O)[O-])c1 | 43.3 µM | 34.4 µM | > 100 µM |  | 38.6 µM | 34.8 µM |  | 38.3 µM |  |  |  |  |  |  |  |  |  |  |  | 
12 | COC(=O)c1c/c(=N\NC(=O)CC(=O)Nc2ccccc2Cl)c2ccccc2o1 | > 100 µM | > 100 µM | > 100 µM | > 100 µM | > 100 µM | > 100 µM | > 100 µM | > 100 µM |  |  |  |  |  |  |  |  |  |  |  | 
13 | COc1ccc(Cl)cc1N1C(=O)C(Cl)=C(Nc2cccc(O)c2)C1=O |  |  | 48.6 µM | 24.9 µM | 29.8 µM | 83.8 µM | 48 µM | 29.1 µM |  | 19.2 µM | 41.5 µM |  | 16.9 µM | 11.8 µM | 14.7 µM | 24.4 µM | 17.5 µM | 14.4 µM | 27.2 µM | 95.4 µM
14 | CCCCCCCCCCCCCCCC(=O)NC1CCc2cc(O)c(O)c(O)c2-c2ccc(SC)c(=O)cc21 (centres undefined) | 27.4 µM | 9.2 µM | 22.4 µM | 17.2 µM | 35.8 µM | 20.9 µM | 12.6 µM | 15.5 µM |  |  |  |  |  |  |  |  |  |  |  | 
15 | O=[N+]([O-])c1ccc(Cc2nc3ccccc3s2)cc1 | > 100 µM | 70.4 µM | > 100 µM | > 100 µM | > 100 µM | > 100 µM | > 100 µM | > 100 µM |  |  |  |  |  |  |  |  |  |  |  | 
16 | C=CCOc1cc2c(cc1C(C)c1ccc(OC)cc1)OCO2 (centres undefined) | 40.2 µM | 1.34 µM | > 100 µM | > 47.9 µM | > 100 µM | > 100 µM | > 100 µM | > 100 µM |  |  | > 100 µM |  |  |  |  |  |  |  |  | 
17 | CC1(C)CCSC(/C=C/c2ccccc2)=N1 |  | 43.5 µM | 38.8 µM | 26.7 µM |  | 43 µM | 34.3 µM | 21.7 µM |  |  | 27.6 µM |  |  |  |  |  |  |  |  | 38.2 µM
18 | CCC(C)C1NC(=O)C(NC(=O)C(CC(C)C)N(C)C(=O)[C@@H]2CC(O)CN2)C(C)OC(=O)[C@H](Cc2ccc(OC)cc2)N(C)C(=O)[C@@H]2CCCN2C(=O)[C@H](CC(C)C)NC(=O)C(C)C(=O)[C@H](C(C)C)OC(=O)CC1O (some centres undefined) (H-[X9][ξNMeL][ξT][X4]LP[NMeY](Me); ester 3-C) | 0.0804 µM and 0.355 µM | 0.0152 µM and 0.0395 µM | 1.01 µM and 1.9 µM |  | 0.0759 µM and 0.682 µM | 0.0194 µM and 0.106 µM | 0.335 µM and 1.01 µM | 8.57 µM | 0.0302 µM |  |  |  | 0.0561 µM |  | 0.0109 µM |  |  | 0.147 µM | 4.46 µM | > 100 µM
19 | O=C(CC(=O)Nc1ccc(Cl)cc1)NNCC(=O)Nc1nc(-c2ccccc2)cs1 | > 100 µM | > 100 µM |  | > 100 µM | > 100 µM | > 100 µM | > 100 µM |  |  |  |  |  |  |  |  |  |  |  |  | 
20 | COc1ccc(C2(CN(C)C)COc3cc(OC)c(OC)cc3C2=O)cc1OC (centres undefined) | > 100 µM | > 100 µM | > 100 µM | 30.3 µM | > 100 µM | > 100 µM | > 100 µM |  |  |  |  |  |  |  |  |  |  |  |  | 
